Patent US20040248913A1, “(Pyridinyl and pyrimidyl) trienoic acid derivatives as retinoid x receptor modulators” (priority 2001, published 2004)

Assays:
[1] = system: RXRα:RAR heterodimer; experiment: RXR:RAR heterodimer cotransfection assay in CV-1 cells; format: cell-based, human; conditions: alone
Source text: In the co-transfection assay, cloned cDNA for one or more IRs (e.g., human RARα, RXRα, or PPARγ), alone or in combination (i.e. for heterodimer assays) under the control of a constitutive promoter (e.g., the SV 40, RSV or CMV promoter) is introduced by transfection (a procedure to introduce exogenous genes into cells) into a background cell substantially devoid of endogenous IRs. These introduced gene(s) direct the recipient cells to make the IR protein(s) of interest. A further gene is also introduced (co-transfected) into the same cells in conjunction with the IR gene(s). This further gene, comprising the cDNA for a reporter protein, such as firefly luciferase (LUC), controlled by an appropriate hormone responsive promoter containing a hormone response element (HRE). This reporter plasmid functions as a reporter for the transcriptional-modulating activity of the target IR(s). Thus, the reporter acts as a surrogate for the products (mRNA then protein) normally expressed by a gene under control of the target receptor(s) and their native hormone(s).
Compounds of the present invention were also tested for the ability to synergize with an RAR or PPARγ agonist in the context of an RXR heterodimer. […] Efficacy of the compounds of the present invention in the agonist and synergy assays was calculated as the maximum response obtained over the range of the dose response curve relative to the maximum response obtained by the reference agonist. Antagonist efficacy was determined as a function (%) of maximal inhibition.
RAR suppresses RXR ligand binding and transactivation of typical RXR agonists via allosteric interactions. […] However, when RAR is occupied, typical RXR agonists activate the heterodimer. […] To examine the effects of the compounds of the present invention on the transcriptional properties of the RXR:RAR heterodimer, a heterodimer cotransfection assay as described above was employed.

[2] = system: db/db mice; experiment: db/db mice, daily oral gavage; format: in vivo, mouse; conditions: 7 week old db/db mice
Source text: (§1) Rodents that are genetically defective in the leptin pathway are commonly used as animal models of non-insulin dependant diabetes mellitus (NIDDM). db/db mice and ZDF rats develop frank diabetes that progresses to include β-cell failure and the accompanying precipitous drop in plasma insulin levels. […] All three rodent models were used to examine the efficacy of oral dosing with compounds of the invention on diabetes, insulin sensitivity, food consumption and body weight gain.
(§2) Mice (obtained from Jackson Laboratory), ZDF rats (obtained from Genetic Models Inc.) and fa/fa rats (obtained from either Charles River, or Harlan) are maintained on 12-hour light/dark cycle. Mice (age 28-42 days) are caged in groups of 5-6. Rats (age 7 weeks) are housed individually. All animals are allowed ad libitum access to water and food (Purina 5015 for mice and 5008 for rats). Compounds are administered at the specified doses by oral gavage on the morning of each day of any experiment. Blood samples are obtained 3 hours after dosing from fed animals under anesthesia and collected into heparinized capillary tubes from the tail vein.

[3] = system: rodent models of NIDDM; experiment: Rodent models of NIDDM / Type II Diabetes; format: in vivo
Source text: as §1, §2
On the other hand, full antagonists have no effect on glucose, triglycerides or the thyroid status in these same model systems. We have identified a specific subset of rexinoids that maintain the desirable insulin sensitizing activity and eliminate both the suppression of the thyroid axis and triglyceride elevations. These compounds are heterodimer selective modulators of RXR activity. They bind to RXR with high affinity (generally Ki<50 nM) and produce potent synergistic activation of the RXR:PPARγ heterodimer. This synergistic activation of PPARγ in vitro is presumably a major determinant of the antidiabetic efficacy of compounds in vivo.

[4] = system: mice transgenic for the human apolipoprotein A-I gene; experiment: Transgenic mice carrying the human apo A-I gene; format: in vivo, mouse
Source text: Mice transgenic for the human apolipoprotein A-I gene (obtained from Jackson Laboratory) are used to evaluate PPARγ mediated effects on high density lipoprotein (HDL) cholesterol. The mice are handled as described above for db/db mice, except that they are fed Purina 5001.

With `C/C(=C\c1ccc(C(=O)O)cc1)c1ccc2c(c1)C(C)(C)CCC2(C)C` [TTNPB, (E)-4-[2-(5,6,7,8-tetrahydro-5,5,8,8-tetramethyl-2-naphthalenyl)-1-propenyl]benzoic acid, reference compound] the “RXR:RAR agonist activity / transactivation alone (in words)” value [1] was “strongly transactivate”.

With `CN(C)C(=N)N=C(N)N` [metformin] the Plasma glucose ([2]; 300 mg/kg by daily oral gavage) was “lowers plasma glucose” and the “Efficacy on plasma glucose over time” value ([2]; 300 mg/kg daily, 3 weeks subsequent to first week) was “efficacy of metformin decreases”.

With `CC1=C(/C=C/C(C)=C/C=C/C(C)=C/C(=O)O)C(C)(C)CCC1` [ATRA, all-trans retinoic acid, reference compound] the “RXR:RAR agonist activity / transactivation alone (in words)” value [1] was “strongly transactivate”.

`Cc1cc2c(cc1C1(c3ccc(C(=O)O)cn3)CC1)C(C)(C)CCC2(C)C` [LG100268] was tested, and the Blood glucose levels [3] was “lower blood glucose levels”, the Insulin sensitizing activity [3] was “efficacious insulin sensitizers” and the Thyroid hormone axis [3] was “suppress the thyroid hormone axis”. The Triglycerides [3] was “raise triglycerides” and the Triglycerides [4] was “raises triglycerides”.
